Data as given in patent US5432165A, “Methods for the treatment of infection caused by Hepatitis B virus (HBV)” (priority 1992, dated 1995).

Experiment: Adverse Experience Summary (Table II), HIV-infected patients
Assay type: in vivo, human
Excerpt: A summary of the adverse effects experienced by some of the patients involved in the various dosage studies conducted are presented in Table II, attached hereto. Where no entry is given, no adverse experience was observed.

O=c1[nH]c(=O)n([C@@H]2O[C@H](CO)[C@@H](O)[C@@H]2F)cc1I [FIAU, 1-(2'-deoxy-2'-fluoro-β-D-arabinofuranosyl)-5-iodouracil]
Incidence: ALT elevation, moderate (2.5-5.0x) (0.1 mg/kg-day): 2/4
Incidence: ALT elevation, severe (>5x) (0.1 mg/kg-day): 1/4
Incidence: AST elevation, moderate (2.5-5.0x) (0.1 mg/kg-day): 2/4
Incidence: AST elevation, severe (>5x) (0.1 mg/kg-day): 1/4
Incidence: Fatigue, moderate (0.1 mg/kg-day): 1/4
Incidence: Hyperbilirubemia, mild (0.1 mg/kg-day): 2/4
Incidence: Hypercalcemia, mild (0.1 mg/kg-day): 1/4
Incidence: Hypocalcemia, mild (0.1 mg/kg-day): 1/4
Incidence: Hypoglycemia, mild (0.1 mg/kg-day): 1/4
Incidence: Hyponatremia, mild (0.1 mg/kg-day): 1/4
Incidence: ALT elevation, mild (1.25-2.5x) (0.5 mg/kg-day): 3/10
Incidence: ALT elevation, severe (>5x) (0.5 mg/kg-day): 2/10
Incidence: AST elevation, mild (1.25-2.5x) (0.5 mg/kg-day): 3/10
Incidence: AST elevation, moderate (2.5-5.0x) (0.5 mg/kg-day): 1/10
Incidence: AST elevation, severe (>5x) (0.5 mg/kg-day): 2/10
Incidence: Diarrhea, mild (0.5 mg/kg-day): 1/10
Incidence: Disoriented, mild (0.5 mg/kg-day): 1/10
Incidence: Fatigue, mild (0.5 mg/kg-day): 3/10
Incidence: Fatigue, moderate (0.5 mg/kg-day): 1/10
Incidence: Headache, mild (0.5 mg/kg-day): 2/10
Incidence: Headache, moderate (0.5 mg/kg-day): 1/10
Incidence: Hemauria, moderate (0.5 mg/kg-day): 1/10
Incidence: Hypophosphatemia, moderate (0.5 mg/kg-day): 1/10
Incidence: Nausea, mild (0.5 mg/kg-day): 3/10
Incidence: Nausea, moderate (0.5 mg/kg-day): 1/10
Incidence: Proteinuria, mild (0.5 mg/kg-day): 1/10
Incidence: Stomatitis, moderate (0.5 mg/kg-day): 1/10
Incidence: Vomiting, mild (0.5 mg/kg-day): 2/10
Incidence: Weakness, mild (0.5 mg/kg-day): 2/10
Incidence: ALT elevation, mild (1.25-2.5x) (1.0 mg/kg-day): 4/9
Incidence: ALT elevation, moderate (2.5-5.0x) (1.0 mg/kg-day): 1/9
Incidence: ALT elevation, severe (>5x) (1.0 mg/kg-day): 3/9
Incidence: AST elevation, mild (1.25-2.5x) (1.0 mg/kg-day): 4/9
Incidence: AST elevation, moderate (2.5-5.0x) (1.0 mg/kg-day): 1/9
Incidence: AST elevation, severe (>5x) (1.0 mg/kg-day): 3/9
Incidence: Abdominal Cramping, moderate (1.0 mg/kg-day): 1/9
Incidence: Constipation, mild (1.0 mg/kg-day): 1/9
Incidence: Decreases sensations, mild (1.0 mg/kg-day): 1/9
Incidence: Diarrhea, mild (1.0 mg/kg-day): 2/9
Incidence: Difficulty focusing, mild (1.0 mg/kg-day): 1/9
Incidence: Dizziness, mild (1.0 mg/kg-day): 1/9
Incidence: Fatigue, mild (1.0 mg/kg-day): 2/9
Incidence: Fatigue, moderate (1.0 mg/kg-day): 1/9
Incidence: Fatigue, severe (1.0 mg/kg-day): 1/9
Incidence: Headache, mild (1.0 mg/kg-day): 1/9
Incidence: Headache, severe (1.0 mg/kg-day): 1/9
Incidence: Heartbum, mild (1.0 mg/kg-day): 1/9
Incidence: Light Stools, mild (1.0 mg/kg-day): 1/9
Incidence: Nausea, mild (1.0 mg/kg-day): 6/9
Incidence: Nausea, moderate (1.0 mg/kg-day): 1/9
Incidence: Paresibesia (extremities), mild (1.0 mg/kg-day): 1/9
Incidence: Vomiting, mild (1.0 mg/kg-day): 1/9
Incidence: Weakness, mild (1.0 mg/kg-day): 2/9
Incidence: Weakness, moderate (1.0 mg/kg-day): 1/9
Incidence: myositis, severe (1.0 mg/kg-day): 1/9
